From patent US20180221306A1, “PHARMACEUTICAL COMPOSITIONS OF 5-HYDROXY-2-METHYLNAPHTHALENE-1,4-DIONE” (PellFiCure Pharmaceuticals, Inc., priority 2016, published 2018)
Marks after values point to notes of the source that are not given here.

Experiment: Forced degradation: solution stability in aqueous media (HPLC)

CC1=CC(=O)c2c(O)cccc2C1=O [Compound I, 5-hydroxy-2-methylnaphthalene-1,4-dione]
Solution Stability in Aqueous Media, Purity (pH 3, 50% DMSO, 25° C./60% RH, t = 2 week): 95.26 % Area
Solution Stability in Aqueous Media, Purity (pH 3, 50% DMSO, 40° C./75% RH, t = 1 week): 88.81 % Area
Solution Stability in Aqueous Media, Purity (pH 3, 50% DMSO, 40° C./75% RH, t = 2 week): 72.78 % Area
Solution Stability in Aqueous Media, Purity (pH 4, 50% DMSO, 25° C./60% RH, t = 0): 98.73 % Area
Solution Stability in Aqueous Media, Purity (pH 4, 50% DMSO, 25° C./60% RH, t = 1 week, precipitation observed): 96.77^‡ % Area
Solution Stability in Aqueous Media, Purity (pH 4, 50% DMSO, 25° C./60% RH, t = 2 week, precipitation observed): 93.81^‡ % Area
Solution Stability in Aqueous Media, Purity (pH 4, 50% DMSO, 40° C./75% RH, t = 1 week, precipitation observed): 87.32^‡ % Area
Solution Stability in Aqueous Media, Purity (pH 4, 50% DMSO, 40° C./75% RH, t = 2 week, precipitation observed): 73.78^‡ % Area
Solution Stability in Aqueous Media, Purity (pH 5, 50% DMSO, 25° C./60% RH, t = 0): 98.46 % Area
Solution Stability in Aqueous Media, Purity (pH 5, 50% DMSO, 25° C./60% RH, t = 1 week, precipitation observed): 92.26^‡ % Area
Solution Stability in Aqueous Media, Purity (pH 5, 50% DMSO, 25° C./60% RH, t = 2 week, precipitation observed): 83.09^‡ % Area
Solution Stability in Aqueous Media, Purity (pH 5, 50% DMSO, 40° C./75% RH, t = 1 week, precipitation observed): 58.98^‡ % Area
Solution Stability in Aqueous Media, Purity (pH 5, 50% DMSO, 40° C./75% RH, t = 2 week, precipitation observed): 29.30^‡ % Area
Solution Stability in Aqueous Media, Purity (pH 6, 50% DMSO, 25° C./60% RH, t = 0): 97.78 % Area
Solution Stability in Aqueous Media, Purity (pH 6, 50% DMSO, 25° C./60% RH, t = 1 week): 69.37 % Area
Solution Stability in Aqueous Media, Purity (pH 6, 50% DMSO, 25° C./60% RH, t = 2 week, precipitation observed): 44.92^‡ % Area
Solution Stability in Aqueous Media, Purity (pH 6, 50% DMSO, 40° C./75% RH, t = 1 week): <10 % Area
Solution Stability in Aqueous Media, Purity (pH 6, 50% DMSO, 40° C./75% RH, t = 2 week, precipitation observed): <10^‡ % Area
Solution Stability in Aqueous Media, Purity (pH 7, 50% DMSO, 25° C./60% RH, t = 0): 91.09 % Area
Solution Stability in Aqueous Media, Purity (pH 7, 50% DMSO, 25° C./60% RH, t = 1 week): <10 % Area
Solution Stability in Aqueous Media, Purity (pH 7, 50% DMSO, 25° C./60% RH, t = 2 week, precipitation observed): <10^‡ % Area
Solution Stability in Aqueous Media, Purity (pH 7, 50% DMSO, 40° C./75% RH, t = 1 week): <10 % Area
Solution Stability in Aqueous Media, Purity (pH 7, 50% DMSO, 40° C./75% RH, t = 2 week, precipitation observed): <10^‡ % Area
Solution Stability in Aqueous Media, Purity (pH 8, 50% DMSO, 25° C./60% RH, t = 0): 81.64 % Area
Solution Stability in Aqueous Media, Purity (pH 8, 50% DMSO, 25° C./60% RH, t = 1 week): <10 % Area
Solution Stability in Aqueous Media, Purity (pH 8, 50% DMSO, 25° C./60% RH, t = 2 week, precipitation observed): <10^‡ % Area
Solution Stability in Aqueous Media, Purity (pH 8, 50% DMSO, 40° C./75% RH, t = 1 week): <10 % Area
Solution Stability in Aqueous Media, Purity (pH 8, 50% DMSO, 40° C./75% RH, t = 2 week, precipitation observed): <10^‡ % Area
Solution Stability in Aqueous Media, Purity (pH 9, 50% DMSO, 25° C./60% RH, t = 0): 89.84 % Area
Solution Stability in Aqueous Media, Purity (pH 9, 50% DMSO, 25° C./60% RH, t = 1 week): 30.06 % Area
Solution Stability in Aqueous Media, Purity (pH 9, 50% DMSO, 25° C./60% RH, t = 2 week, precipitation observed): 7.58^‡ % Area
Solution Stability in Aqueous Media, Purity (pH 9, 50% DMSO, 40° C./75% RH, t = 1 week): <10 % Area
Solution Stability in Aqueous Media, Purity (pH 9, 50% DMSO, 40° C./75% RH, t = 2 week, precipitation observed): <10^‡ % Area
Solution Stability in Aqueous Media, Purity (pH 10, 50% DMSO, 25° C./60% RH, t = 0): 88.46 % Area
Solution Stability in Aqueous Media, Purity (pH 10, 50% DMSO, 25° C./60% RH, t = 1 week): 37.43 % Area
Solution Stability in Aqueous Media, Purity (pH 10, 50% DMSO, 25° C./60% RH, t = 2 week, precipitation observed): <10^‡ % Area
Solution Stability in Aqueous Media, Purity (pH 10, 50% DMSO, 40° C./75% RH, t = 1 week, precipitation observed): <10^‡ % Area
Solution Stability in Aqueous Media, Purity (pH 10, 50% DMSO, 40° C./75% RH, t = 2 week, precipitation observed): <10^‡ % Area
Solution Stability in Aqueous Media, Purity (water, 25° C./60% RH, t = 0): 96.33 % Area
Solution Stability in Aqueous Media, Purity (water, 25° C./60% RH, t = 1 week, precipitation observed): 66.97^‡ % Area
Solution Stability in Aqueous Media, Purity (water, 25° C./60% RH, t = 2 week, precipitation observed): 53.76^‡ % Area
Solution Stability in Aqueous Media, Purity (water, 40° C./75% RH, t = 1 week, precipitation observed): 45.09^‡ % Area
Solution Stability in Aqueous Media, Purity (water, 40° C./75% RH, t = 2 week, precipitation observed): 44.20^‡ % Area
